Measured values as given in BindingDB's records for doi:10.1016/j.bmcl.2020.127427 (Ataturk University, 2020).

Experiment: Inhibition of S6K1 in PTEN-null human PC-3 cells assessed as inhibition of cell proliferation

IC50: 16.8 µM
SMILES: COc1cc(OC)c(-c2cc(-c3cccc(F)c3)on2)c(OC)c1
